The values below are quoted from earlier work in US11406658B2, “Composition comprising glycyrrhizin and cosmetic and pharmaceutical uses thereof” (ATG 20 S.R.L., priority 2018, dated 2022).

The conditions of data set [1]: background art.
For data set [2] the following is noted: oral administration; background art.

For the compound `CC1(C)[C@@H](O[C@H]2O[C@H](C(=O)O)[C@@H](O)[C@H](O)[C@H]2O[C@@H]2O[C@H](C(=O)O)[C@@H](O)[C@H](O)[C@H]2O)CC[C@]2(C)[C@H]3C(=O)C=C4[C@@H]5C[C@@](C)(C(=O)O)CC[C@]5(C)CC[C@@]4(C)[C@]3(C)CC[C@@H]12.N` [(mono)ammonium salt, (mono) ammonium glycyrrhizate], the solubility result in data set [1] was “soluble in diluted acidic or basic solutions”.

Consider `CC1(C)[C@@H](O[C@H]2OC(C(=O)O)[C@@H](O)C(O)C2O[C@H]2OC(C(=O)O)[C@@H](O)C(O)C2O)CC[C@]2(C)[C@H]3C(=O)C=C4[C@@H]5C[C@@](C)(C(=O)O)CC[C@]5(C)CC[C@@]4(C)[C@]3(C)CC[C@@H]12` (stereo partly shown) [Glycyrrhizin], for which, in data set [1], the solubility entry was “not particularly water-soluble”. Further, the bioavailability result in data set [2] is “extremely low”.

In the case of `CC1(C)[C@@H](O[C@H]2OC(C(=O)[O-])[C@@H](O)C(O)C2O[C@H]2OC(C(=O)[O-])[C@@H](O)C(O)C2O)CC[C@]2(C)[C@H]3C(=O)C=C4[C@@H]5C[C@@](C)(C(=O)O)CC[C@]5(C)CC[C@@]4(C)[C@]3(C)CC[C@@H]12.[K+].[K+]` (stereo partly shown) [potassium salt, dipotassium glycyrrhizate], in data set [1], the solubility result was “water-soluble”.
